Bounds are passed on as bounds.

For one assay, the target named is T1, human CXCR3 (N-delta 4) (Homo sapiens, UniProt P49682).
T1 construct: CD8 leader (N); Flag tag; expressed in transfected cells; membrane preparation
T1 sequence (P49682 5-368 limits assumed): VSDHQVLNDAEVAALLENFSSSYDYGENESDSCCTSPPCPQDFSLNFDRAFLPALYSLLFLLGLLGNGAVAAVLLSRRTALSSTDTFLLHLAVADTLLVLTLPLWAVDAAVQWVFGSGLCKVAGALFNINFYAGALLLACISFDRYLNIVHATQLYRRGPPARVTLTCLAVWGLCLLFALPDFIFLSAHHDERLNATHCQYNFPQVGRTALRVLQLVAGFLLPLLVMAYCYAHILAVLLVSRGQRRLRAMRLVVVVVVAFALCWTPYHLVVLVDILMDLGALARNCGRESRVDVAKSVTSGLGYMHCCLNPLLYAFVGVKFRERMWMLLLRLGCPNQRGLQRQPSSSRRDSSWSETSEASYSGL
Description: Human CXCR3 (N-delta 4) scintillation proximity assay (SPA), [125I] IP-10 binding to Ba/F3-hCXCR3 membranes. Particulars: IC50 rating; [125I] IP-10 displacement, human CXCR3; read-out: IC50. An excerpt:
The inventive compounds can readily be evaluated to determine activity at the CXCR3 receptors by known methods, such as, for example, development of a human CXCR3 (N-delta 4) Binding Assay.
The DNA encoding human CXCR3 was cloned by PCR using human genomic DNA (Promega, Madison, Wis.) as a template. The PCR primers were designed based on the published sequence of human orphan receptor GPR9 (1) with incorporated restriction sites, a Kozak consensus sequence, CD8 leader and Flag tag. The PCR product was subcloned into the mammalian expression vector pME18Sneo, a derivative of the SR-alpha expression vector (designated as pME18Sneo-hCXCR3 (N-delta 4).
IL-3-dependent mouse pro-B cells Ba/F3 were transfected by electroporation in 0.4 ml Dulbecco's PBS containing 4×10^6 cells with 20 μg of pME18Sneo-hCXCR3 (N-delta 4) plasmid DNA. Cells were pulsed at 400 Volts, 100 OHMs, 960 μFd. The transfected cells were under selection with 1 mg/ml G418 (Life Technologies, Gaithersburg, Md.). G418-resistant Ba/F3 clones were screened for CXCR3 expression by specific binding of [^125I] IP-10 (NEN Life Science Products, Boston, Mass.).
Ba/F3 cells expressing human CXCR3 (N-delta 4) were pelleted and resuspended in the lysis buffer containing 10 mM HEPES, pH 7.5 and Complete® protease inhibitors (1 tablet per 100 ml) (Boehringer Mannheim, Indianapolis, Ind.) at a cell density of 20×10^6 cells per ml. After 5 minute incubation on ice, cells were transferred to 4639 cell disruption bomb (Parr Instrument, Moline, Ill.) and applied with 1,500 psi of nitrogen for 30 minutes on ice. Large cellular debris was removed by centrifugation at 1,000×g. Cell membrane in the supernatant was sedimented at 100,000×g. The membrane was resuspended in the lysis buffer supplemented with 10% sucrose and stored at −80° C. Total protein concentration of the membrane was determined by BCA method from Pierce (Rockford, Ill.).
Human CXCR3 (N-Delta 4) Scintillation Proximity Assay (SPA):
For each assay point, 2 μg of membrane was preincubated for 1 hr with 300 μg wheat germ agglutinin (WGA) coated SPA beads (Amersham, Arlington Heights, Ill.) in the binding buffer (50 mM HEPES, 1 mM CaCl2, 5 mM MgCl2, 125 mM NaCl, 0.002% NaN3, 1.0% BSA) at room temperature. The beads were spun down, washed once, resuspended in the binding buffer and transferred to a 96-well Isoplate (Wallac, Gaithersburg, Md.). 25 pM of [^125I] IP-10 with tested compounds in a series of titration were added to start the reaction. After 3 hr reaction at room temperature, the amount of [^125I] IP-10 bound to the SPA beads was determined with a Wallac 1450 Microbeta counter.
A general note: SPA uses beads or plates that emit light when radiolabelled molecules are held near them.
By IC50 is commonly meant the midpoint of a concentration-inhibition curve. As for `CC[C@H]1CN(c2ncc(NC3=NS(=O)(=O)N=C3N3CCC3)cc2Cl)CCN1C1CCN(Cc2ccc(Cl)cc2F)CC1` [Compound 254], the IC50 is less than 25 nM.
Still for that read-out and setting: to `C[C@@H]1CN(c2ncc(Nc3c(NCC(F)(F)F)c(=O)c3=O)cc2Cl)[C@@H](C)CN1C1CCN(Cc2ccccc2O)CC1` [Compound 153] belongs greater than 100 nM.
On the same count and under the same terms, to `Cc1cc(Nc2c(NCC(F)(F)F)c(=O)c2=O)cnc1N1C[C@@H](C)N(C2CCN(C(=O)c3ccc(C#N)cc3)CC2)C[C@@H]1C` [Compound 131] belongs greater than 100 nM.
Take `CSc1ccc(CN2CCC(N3C[C@H](C)N(c4ncc(Nc5c(NCC(F)(F)F)c(=O)c5=O)cc4Cl)C[C@H]3C)CC2)cc1` [Compound 121]: the IC50 is greater than 100 nM.
In the case of `CC[C@H]1CN(c2ncc(Nc3c(NC4CC4)c(=O)c3=O)cc2Cl)CCN1C1CCN([C@@H](C(N)=O)c2ccc(Cl)cc2)CC1` [Compound 167], the IC50 was greater than 100 nM.
On the same count and under the same terms, under `CC[C@H]1CN(c2ncc(NS(C)(=O)=O)cc2Cl)CCN1C1CCN(Cc2ccc(Cl)cc2OC)CC1` [Compound 1] stands less than 25 nM; under `CC[C@H]1CN(c2c(F)cc(Nc3c(NC4CC4)c(=O)c3=O)cc2Cl)CCN1C1CCN(Cc2ccc(Cl)cc2F)CC1` [Compound 105], 25 to 100 nM; under `CC[C@H]1CN(c2ncc(Nc3c(NC4CC4)c(=O)c3=O)cc2Cl)CCN1C1CCN(Cc2ccc(Cl)cc2C#N)CC1` [Compound 97], less than 25 nM.
Same read-out and setting: to `CC[C@H]1CN(c2ncc(NC3=NS(=O)(=O)N=C3NCCO)cc2Cl)CCN1C1CCN(Cc2ccc(Cl)cc2F)CC1` [Compound 238] belongs less than 25 nM.
Still for that read-out and setting: under `C[C@@H]1CN(C2CCN(Cc3ccc(Cl)cc3F)CC2)[C@@H](C)CN1c1ncc([N+](=O)[O-])cc1Cl` [Compound 217] stands greater than 100 nM; under `CC[C@H]1CN(c2ncc(NC3=NS(=O)(=O)N=C3NC3CC3)cc2Cl)CCN1C1CCN([C@H](CO)c2ccc(Cl)cc2)CC1` [Compound 240], less than 25 nM.
In the case of `CC[C@H]1CN(c2ncc(NS(C)(=O)=O)cc2Cl)CCN1C1CCN(Cc2ccc(Cl)cc2NS(C)(=O)=O)CC1` [Compound 52], the IC50 is greater than 100 nM.
Turning to `CC[C@H]1CN(c2ncc(NS(C)(=O)=O)cc2Cl)CCN1C1CCN(C(CO)c2ccc(Cl)cc2)CC1` (stereo partly drawn) [Compound 11], the IC50 was less than 25 nM.
`CC[C@H]1CN(c2ncc([N+](=O)[O-])cc2Cl)CCN1C1CCN(Cc2ccc(Cl)cc2-c2nnc[nH]2)CC1` [Compound 215]: the IC50 is greater than 100 nM.
On the same count and under the same terms, to `Cc1cc(OCc2ccccc2)cc(C)c1C(=O)N1CCC(N2C[C@H](C)N(c3ncc(Nc4c(NCC(F)(F)F)c(=O)c4=O)cc3Cl)C[C@H]2C)CC1` [Compound 140] belongs greater than 100 nM; to `C[C@@H]1CN(c2ncc(Nc3c(NCC(F)(F)F)c(=O)c3=O)cc2Cl)[C@@H](C)CN1C1CCN(C2CCCC(C(F)(F)F)C2)CC1` (stereo partly drawn) [Compound 172], greater than 100 nM; to `C[C@@H]1CN(c2ncc(Nc3c(NCC(F)(F)F)c(=O)c3=O)cc2Cl)[C@@H](C)CN1C1CCN(CCCC2CCCCC2)CC1` [Compound 118], greater than 100 nM.
As for `CC(C)C1CCC(N2CCC(N3C[C@H](C)N(c4ncc(Nc5c(NCC(F)(F)F)c(=O)c5=O)cc4Cl)C[C@H]3C)CC2)CC1` (stereo partly drawn) [Compound 169], the IC50 was greater than 100 nM.
On the same count and under the same terms, under `CC[C@H]1CN(c2ncc(NC3=NS(=O)(=O)N=C3NC3CC3)cc2Cl)CCN1C1CCN(Cc2ccc(Cl)cc2F)CC1` [Compound 235] stands less than 25 nM.
The same measure, in the same setting: under `CC[C@H]1CN(c2ncc(NC(N)=O)cc2Cl)CCN1C1CCN(Cc2ccc(Cl)cc2F)CC1` [Compound 186] stands 25 to 100 nM; under `CC[C@H]1CN(c2ncc(NS(N)(=O)=O)cc2Cl)CCN1C1CCN(C(=O)c2ccc(Cl)cc2)CC1` [Compound 33], 25 to 100 nM; under `CC[C@H]1CN(c2ncc(Nc3c(NC4CC4)c(=O)c3=O)cc2Cl)CCN1C1CCN(Cc2ccc(Cl)cc2C(N)=O)CC1` [Compound 81], less than 25 nM.
Same read-out and setting: to `CC[C@H]1CN(c2ncc(Nc3c(NCC(=O)OC(C)(C)C)c(=O)c3=O)cc2Cl)CCN1C1CCN([C@H](CO)c2ccc(Cl)cc2)CC1` [Compound 110] belongs 25 to 100 nM.

Staying with this assay, now noted: value given in the text as example; read-out: IC50 value.
Take `CC[C@H]1CN(c2ncc(NS(C)(=O)=O)cc2Cl)CCN1C1CCN(Cc2ccc(Cl)cc2OC)CC1` [Compound 1]: the IC50 came to 0.8 nM.

(Values after patent publication US7566718B2, “Amine-linked pyridyl and phenyl substituted piperazine-piperidines with CXCR3 antagonist activity” (Schering Corporation, priority 2005, dated 2009).)
